Measurements published in patent US20250243245A1 (priority 2022, published 2025).
Where a SMILES comes first, the peptide text is derived from it.

Tests used:
[1] = test system: E. coli strain BL21; conditions: BL21, 24 h
[2] = test system: E. coli BL21; conditions: BL21, 24 h
[3] = in vitro; conditions: human, HEK cells (HEK294 [sic])
[4] = test system: tomato and tobacco leaves; assay: Leaf infiltration toxicity on tomato and tobacco leaves

Structure (SMILES) | MIC [1] | IC50 [2] | cytotoxicity at 72 h, 20 µM [3] | toxicity to tomato and tobacco ([4]; 15-25 μM, even after 96 hours of leaf infiltration) | corrosion of infiltrated tomato and tobacco leaves ([4]; 24, 48, 72, and 96 hours of infiltration (FIGS. 8A-H))
CC[C@H](C)[C@H](NC(=O)[C@H](CCCCN)NC(=O)[C@H](CC(C)C)NC(=O)[C@@H](NC(=O)[C@H](CCC(=O)O)NC(=O)[C@H](CCCCN)NC(=O)[C@@H]1CCCN1C(=O)[C@H](CC(C)C)NC(=O)[C@H](CCCCN)NC(=O)[C@@H](N)CCCCN)[C@@H](C)CC)C(=O)N[C@@H](CC(C)C)C(=O)NCC(=O)N[C@@H](CO)C(=O)NCC(=O)N[C@@H](Cc1ccc(O)cc1)C(=O)NCC(=O)N[C@@H](CO)C(=O)N[C@@H](CC(C)C)C(=O)N1CCC[C@H]1C(=O)N[C@@H](CCCCN)C(=O)N[C@@H](CCC(=O)O)C(=O)N[C@H](C(=O)N[C@@H](CC(C)C)C(=O)N[C@@H](CCCCN)C(=O)N[C@H](C(=O)N[C@@H](CC(C)C)C(=O)N[C@@H](CCC(=O)O)C(=O)N[C@@H](CC(C)C)C(=O)N[C@@H](CCCCN)C(=O)N[C@@H](CCCCN)C(=O)O)[C@@H](C)CC)[C@@H](C)CC [Gen-1] (H-KKLPKEILKILGSGYGSLPKEILKILELKK-OH; N-terminus and C-terminus assumed) | 5 to 10 mM | 10.22 ± 0.07 µM | – | – | –
CC[C@H](C)[C@H](NC(=O)[C@H](CCC(=O)O)NC(=O)[C@H](CC(C)C)NC(=O)[C@@H](NC(=O)[C@H](CCCCN)NC(=O)[C@H](CCC(=O)O)NC(=O)[C@@H]1CCCN1C(=O)[C@H](CC(C)C)NC(=O)[C@H](CCCCN)NC(=O)[C@@H](N)CCCCN)[C@@H](C)CC)C(=O)N[C@@H](CC(C)C)C(=O)NCC(=O)N[C@@H](CO)C(=O)NCC(=O)N[C@@H](Cc1ccc(O)cc1)C(=O)N[C@@H](CCCCN)C(=O)N[C@@H](CCCCN)C(=O)N[C@@H](CC(C)C)C(=O)N1CCC[C@H]1C(=O)N[C@@H](Cc1ccccc1)C(=O)N[C@@H](Cc1c[nH]c2ccccc12)C(=O)N[C@@H](CCC(N)=O)C(=O)N[C@@H](CCCNC(=N)N)C(=O)N[C@@H](CCCNC(=N)N)C(=O)N[C@H](C(=O)N[C@@H](CCCNC(=N)N)C(=O)N[C@@H](CCCNC(=N)N)C(=O)N[C@@H](Cc1c[nH]c2ccccc12)C(=O)N[C@@H](CCCNC(=N)N)C(=O)N[C@@H](CCCNC(=N)N)C(=O)O)[C@@H](C)CC [Gen-2] (H-KKLPEKILEILGSGYKKLPFWQRRIRRWRR-OH; N-terminus and C-terminus assumed) | 2.5 to 5 mM | 2.83 ± 0.14 µM | – | – | –
CC[C@H](C)[C@H](NC(=O)[C@H](CCCCN)NC(=O)[C@H](CC(C)C)NC(=O)[C@@H](NC(=O)[C@H](CCCCN)NC(=O)[C@H](CCCCN)NC(=O)[C@@H](NC(=O)[C@H](CC(C)C)NC(=O)[C@H](CCCCN)NC(=O)[C@@H](N)CCCCN)[C@@H](C)CC)[C@@H](C)CC)C(=O)N[C@@H](CC(C)C)C(=O)O [Peptide 11P-1, reference compound] (H-KKLIKKILKIL-OH; N-terminus and C-terminus assumed) | 10 to 20 mM | 12.9 ± 0.62 µM | – | – | –
CC[C@H](C)[C@H](NC(=O)[C@H](CCCNC(=N)N)NC(=O)[C@H](CCCNC(=N)N)NC(=O)[C@H](CCC(N)=O)NC(=O)[C@H](Cc1c[nH]c2ccccc12)NC(=O)[C@@H](N)Cc1ccccc1)C(=O)N[C@@H](CCCNC(=N)N)C(=O)N[C@@H](CCCNC(=N)N)C(=O)N[C@@H](Cc1c[nH]c2ccccc12)C(=O)N[C@@H](CCCNC(=N)N)C(=O)N[C@@H](CCCNC(=N)N)C(=O)O [Peptide 11P-3, reference compound] (H-FWQRRIRRWRR-OH; N-terminus and C-terminus assumed) | >20 mM | 49 ± 2.79 µM | – | – | –
CC[C@H](C)[C@H](NC(=O)[C@H](CCCNC(=N)N)NC(=O)[C@H](CCCNC(=N)N)NC(=O)[C@H](CCC(N)=O)NC(=O)[C@H](Cc1c[nH]c2ccccc12)NC(=O)[C@H](Cc1ccccc1)NC(=O)CNC(=O)[C@@H]1CCCN1C(=O)[C@H](CO)NC(=O)CNC(=O)[C@H](CCCCN)NC(=O)[C@H](CC(C)C)NC(=O)[C@H](CO)NC(=O)[C@H](CCC(=O)O)NC(=O)[C@H](CC(C)C)NC(=O)[C@@H](NC(=O)[C@H](CCCCN)NC(=O)[C@H](CC(C)C)NC(=O)[C@@H](NC(=O)[C@H](CCCCN)NC(=O)[C@H](CCC(=O)O)NC(=O)[C@@H]1CCCN1C(=O)[C@H](CC(C)C)NC(=O)[C@H](CCCCN)NC(=O)[C@@H](N)CCCCN)[C@@H](C)CC)[C@@H](C)CC)C(=O)N[C@@H](CCCNC(=N)N)C(=O)N[C@@H](CCCNC(=N)N)C(=O)N[C@@H](Cc1c[nH]c2ccccc12)C(=O)N[C@@H](CCCNC(=N)N)C(=O)N[C@@H](CCCNC(=N)N)C(=O)O [UGK-17] (H-KKLPEKILKILESLKGSPGFWQRRIRRWRR-OH) | – | 1.36 ± 0.04 µM | < 20% | not toxic | no corrosion beyond the infiltrated spots
CC(C)C[C@H](NC(=O)[C@H](Cc1c[nH]cn1)NC(=O)[C@H](C)NC(=O)[C@H](CCCCN)NC(=O)[C@H](CO)NC(=O)CNC(=O)[C@H](CCC(=O)O)NC(=O)[C@H](CC(C)C)NC(=O)[C@H](CO)NC(=O)[C@H](CCCCN)NC(=O)[C@H](CC(C)C)NC(=O)[C@H](CCCCN)NC(=O)[C@H](CCC(N)=O)NC(=O)[C@H](CC(C)C)NC(=O)[C@H](CC(C)C)NC(=O)[C@H](CCC(=O)O)NC(=O)[C@H](CCC(=O)O)NC(=O)[C@@H]1CCCN1C(=O)[C@H](CCCNC(=N)N)NC(=O)[C@@H](N)CCCCN)C(=O)N[C@@H](CCC(N)=O)C(=O)N[C@@H](Cc1c[nH]cn1)C(=O)N[C@@H](Cc1c[nH]cn1)C(=O)N[C@@H](CC(=O)O)C(=O)N[C@@H](Cc1c[nH]c2ccccc12)C(=O)N[C@H](C(=O)N[C@@H](CO)C(=O)N[C@@H](CCCCN)C(=O)O)[C@@H](C)O [UGK-41] (H-KRPEELLQKLKSLEGSKAHLQHHDWTSK-OH; N-terminus and C-terminus assumed) | >20 mM | – | – | – | –
CC(C)C[C@H](NC(=O)[C@H](CO)NC(=O)[C@H](CCCCN)NC(=O)[C@H](CC(C)C)NC(=O)[C@H](CCCCN)NC(=O)[C@H](CCC(N)=O)NC(=O)[C@H](CC(C)C)NC(=O)[C@H](CC(C)C)NC(=O)[C@H](CCC(=O)O)NC(=O)[C@H](CCC(=O)O)NC(=O)[C@H](CC(C)C)NC(=O)[C@H](CCCNC(=N)N)NC(=O)[C@H](CCCCN)NC(=O)[C@@H]1CCCN1C(=O)[C@@H](N)CC(C)C)C(=O)N[C@@H](CCC(=O)O)C(=O)NCC(=O)N[C@@H](CO)C(=O)N[C@@H](CCCCN)C(=O)N[C@@H](C)C(=O)N[C@@H](Cc1c[nH]cn1)C(=O)N[C@@H](CCC(=O)O)C(=O)N[C@@H](CCCCN)C(=O)N[C@@H](CC(C)C)C(=O)N[C@@H](Cc1c[nH]cn1)C(=O)N[C@@H](CC(=O)O)C(=O)N[C@@H](Cc1c[nH]c2ccccc12)C(=O)N[C@H](C(=O)N[C@@H](CCCNC(=N)N)C(=O)N[C@@H](CCCCN)C(=O)O)[C@@H](C)O [UGK-45] (H-LPKRLEELLQKLKSLEGSKAHEKLHDWTRK-OH; N-terminus and C-terminus assumed) | >20 mM | – | – | – | –
CC(C)C[C@H](NC(=O)[C@H](CO)NC(=O)[C@H](CCCCN)NC(=O)[C@H](CC(C)C)NC(=O)[C@H](CCCCN)NC(=O)[C@H](CCC(=O)O)NC(=O)[C@H](CC(C)C)NC(=O)[C@H](CC(C)C)NC(=O)[C@H](CCC(=O)O)NC(=O)[C@H](CCC(=O)O)NC(=O)[C@H](CC(C)C)NC(=O)[C@H](CCCNC(=N)N)NC(=O)[C@H](CCCCN)NC(=O)[C@@H]1CCCN1C(=O)[C@@H](N)CCC(N)=O)C(=O)N[C@@H](CCC(=O)O)C(=O)NCC(=O)N[C@@H](CO)C(=O)N[C@@H](CCCCN)C(=O)N[C@@H](C)C(=O)N[C@@H](Cc1c[nH]cn1)C(=O)N[C@@H](CCC(=O)O)C(=O)N[C@@H](CCCCN)C(=O)N[C@@H](CC(C)C)C(=O)N[C@@H](Cc1c[nH]cn1)C(=O)N[C@@H](CC(=O)O)C(=O)N[C@@H](Cc1c[nH]c2ccccc12)C(=O)N[C@H](C(=O)N[C@@H](CCCNC(=N)N)C(=O)N[C@@H](CCCCN)C(=O)O)[C@@H](C)O [UGK-49] (H-QPKRLEELLEKLKSLEGSKAHEKLHDWTRK-OH; N-terminus and C-terminus assumed) | >20 mM | – | – | – | –
